Target: Rho-associated protein kinase 2 (Homo sapiens, UniProt O75116)
Assay: Binding Assay: ROCK-II inhibitory activity can be measured using the ROCK-II Assay Kit (Molecular Devices, inc.; Sunnyvale, Calif.).

Sequence of Rho-associated protein kinase 2 (O75116 whole entry): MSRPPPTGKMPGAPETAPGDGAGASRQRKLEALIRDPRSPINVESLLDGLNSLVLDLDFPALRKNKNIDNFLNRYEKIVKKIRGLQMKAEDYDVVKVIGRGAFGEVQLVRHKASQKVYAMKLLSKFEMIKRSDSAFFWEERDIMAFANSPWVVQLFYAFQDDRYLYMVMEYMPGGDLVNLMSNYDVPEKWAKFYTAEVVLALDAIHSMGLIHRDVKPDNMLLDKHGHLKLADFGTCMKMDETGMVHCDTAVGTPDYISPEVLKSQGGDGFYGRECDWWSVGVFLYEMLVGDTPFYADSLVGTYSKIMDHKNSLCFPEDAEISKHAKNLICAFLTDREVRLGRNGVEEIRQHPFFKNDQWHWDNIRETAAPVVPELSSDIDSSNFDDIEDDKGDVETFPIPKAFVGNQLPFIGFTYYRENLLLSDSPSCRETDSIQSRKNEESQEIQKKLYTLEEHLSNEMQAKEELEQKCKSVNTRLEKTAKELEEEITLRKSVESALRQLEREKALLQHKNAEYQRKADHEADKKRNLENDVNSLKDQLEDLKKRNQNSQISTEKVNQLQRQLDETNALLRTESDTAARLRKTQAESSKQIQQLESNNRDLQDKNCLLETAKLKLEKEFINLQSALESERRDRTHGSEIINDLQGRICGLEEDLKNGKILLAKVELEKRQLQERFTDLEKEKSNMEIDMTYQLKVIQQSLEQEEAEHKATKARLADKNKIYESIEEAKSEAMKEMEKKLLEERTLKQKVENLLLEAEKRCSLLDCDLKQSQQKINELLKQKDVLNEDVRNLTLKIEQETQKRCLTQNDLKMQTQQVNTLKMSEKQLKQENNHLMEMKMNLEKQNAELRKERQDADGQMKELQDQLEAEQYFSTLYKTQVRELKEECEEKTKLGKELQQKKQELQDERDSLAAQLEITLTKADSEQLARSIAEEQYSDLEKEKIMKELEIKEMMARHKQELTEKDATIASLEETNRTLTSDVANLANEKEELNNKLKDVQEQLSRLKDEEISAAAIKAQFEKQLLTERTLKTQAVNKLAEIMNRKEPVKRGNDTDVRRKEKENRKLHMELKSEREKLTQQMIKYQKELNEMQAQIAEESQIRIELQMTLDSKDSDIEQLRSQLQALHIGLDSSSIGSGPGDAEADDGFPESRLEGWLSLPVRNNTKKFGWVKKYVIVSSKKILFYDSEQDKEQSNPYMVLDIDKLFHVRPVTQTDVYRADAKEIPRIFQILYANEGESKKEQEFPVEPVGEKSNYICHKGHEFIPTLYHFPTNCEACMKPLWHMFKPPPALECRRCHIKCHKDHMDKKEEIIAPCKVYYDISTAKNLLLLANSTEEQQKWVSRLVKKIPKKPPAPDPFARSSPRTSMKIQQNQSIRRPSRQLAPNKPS

## O=C(Nc1ccccc1-c1nc(Nc2ccc3[nH]ncc3c2)c2ccccc2n1)c1ccccn1
  IC50: 8.3 µM

— ChEMBL document CHEMBL5727603 (2020)
